Values of other authors in patent US20160220518A1 (iCeutica, Inc., priority 2009, published 2016).

Conditions: in vivo

excreted in the urine as 6-0-desmethyl naproxen: < 1%
excreted in the urine as naproxen: < 1%
fraction of any dose excreted in the urine: Approximately 95%
fraction of the administered dose excreted in the feces: ≤ 3%
SMILES: COc1ccc2cc([C@H](C)C(=O)O)ccc2c1 [naproxen]
